Assay results reported in article PMC12188386, “Selective CBP/EP300 Bromodomain Inhibitors: Novel Epigenetic Tools to Counter TNF-α-Driven Inflammation” (JACS Au, 2025).

What was measured:
Experiment in all cases: NCI-60 one-dose screen
Type in all cases: cell-based, human
[1] = system: UACC-257; conditions: 10 µM, 48 h, Melanoma
Description: (§1) Adapted from NCI-60 Screening Methodology, one-dose screen:20 Briefly, human tumor cell lines, grown in RPMI 1640 containing 5% FBS and 2 mM L-glutamine, were plated in 96 well plates at densities ranging from 5,000 to 40,000 cells/well 24 h prior to addition of test compounds (here 10 μM 2). 400x solutions of test compounds were prepared in DMSO, then diluted to 2x in medium supplemented with 50 μg/mL gentamicin. 100 μl of this 2x stock was added to cells previously plated in 100 μl medium, resulting in the desired final compound concentration. Cells were fixed in situ with cold TCA: untreated cells at the time of compound addition (Tz) and treated cells 48 h after addition of compound (Ti). Cells were washed, then su f rh damine s uti n μ at . w/v in acetic acid was added to each well and incubated for 10 minutes at room temperature. After washing again, the plates were air dried and bound stain solubilized with 10 mM Trizma base before absorbance was […]
(§2) Percentage growth (%Growth) was calculated as follows:
(§3) when Ti ≥ Tz, %Growth = Ti − Tz x 100 where Ti = absorbance from compound treated cells, Tz = absorbance from untreated cells at time zero, and C = absorbance from control (DMSO) treated cells. […]

[2] = system: MDA-MB-468; conditions: 10 µM, 48 h, Breast Cancer, values <0 indicate lethality
Description: as §1, §2, §3

[3] = system: MDA-MB-231/ATCC; conditions: 10 µM, 48 h, Breast Cancer
Description: as §1, §2, §3

[4] = system: SW-620; conditions: 10 µM, 48 h, Colon Cancer
Description: as §1, §2, §3

[5] = system: SR; conditions: 10 µM, 48 h, Leukemia
Description: as §1, §2, §3

[6] = system: NCI-H322M; conditions: 10 µM, 48 h, Non-Small Cell Lung Cancer
Description: as §1, §2, §3

[7] = system: SF-295; conditions: 10 µM, 48 h, CNS Cancer
Description: as §1, §2, §3

[8] = system: 786-0; conditions: 10 µM, 48 h, Renal Cancer
Description: as §1, §2, §3

[9] = system: IGROV1; conditions: 10 µM, 48 h, Ovarian Cancer
Description: as §1, §2, §3

[10] = system: CCRF-CEM; conditions: 10 µM, 48 h, Leukemia, relative to no-drug control and time zero
Description: as §1, §2, §3

[11] = system: ACHN; conditions: 10 µM, 48 h, Renal Cancer
Description: as §1, §2, §3

[12] = system: HOP-92; conditions: 10 µM, 48 h, Non-Small Cell Lung Cancer
Description: as §1, §2, §3

[13] = system: HOP-62; conditions: 10 µM, 48 h, Non-Small Cell Lung Cancer
Description: as §1, §2, §3

[14] = system: NCI-H226; conditions: 10 µM, 48 h, Non-Small Cell Lung Cancer
Description: as §1, §2, §3

[15] = system: NCI-H460; conditions: 10 µM, 48 h, Non-Small Cell Lung Cancer
Description: as §1, §2, §3

[16] = system: MALME-3M; conditions: 10 µM, 48 h, Melanoma
Description: as §1, §2, §3

[17] = system: KM12; conditions: 10 µM, 48 h, Colon Cancer
Description: as §1, §2, §3

[18] = system: DU-145; conditions: 10 µM, 48 h, Prostate Cancer
Description: as §1, §2, §3

[19] = system: A498; conditions: 10 µM, 48 h, Renal Cancer
Description: as §1, §2, §3

[20] = system: OVCAR-3; conditions: 10 µM, 48 h, Ovarian Cancer
Description: as §1, §2, §3

[21] = system: U251; conditions: 10 µM, 48 h, CNS Cancer
Description: as §1, §2, §3

[22] = system: SK-MEL-28; conditions: 10 µM, 48 h, Melanoma
Description: as §1, §2, §3

[23] = system: SNB-19; conditions: 10 µM, 48 h, CNS Cancer
Description: as §1, §2, §3

[24] = system: MCF7; conditions: 10 µM, 48 h, Breast Cancer
Description: as §1, §2, §3

[25] = system: RPMI-8226; conditions: 10 µM, 48 h, Leukemia
Description: as §1, §2, §3

[26] = system: SK-MEL-2; conditions: 10 µM, 48 h, Melanoma
Description: as §1, §2, §3

[27] = system: M14; conditions: 10 µM, 48 h, Melanoma
Description: as §1, §2, §3

[28] = system: HCT-116; conditions: 10 µM, 48 h, Colon Cancer
Description: as §1, §2, §3

[29] = system: OVCAR-4; conditions: 10 µM, 48 h, Ovarian Cancer
Description: as §1, §2, §3

[30] = system: COLO 205; conditions: 10 µM, 48 h, Colon Cancer
Description: as §1, §2, §3

[31] = system: HCT-15; conditions: 10 µM, 48 h, Colon Cancer
Description: as §1, §2, §3

[32] = system: SK-MEL-5; conditions: 10 µM, 48 h, Melanoma, values <0 indicate lethality
Description: as §1, §2, §3

[33] = system: HT29; conditions: 10 µM, 48 h, Colon Cancer
Description: as §1, §2, §3

[34] = system: UO-31; conditions: 10 µM, 48 h, Renal Cancer
Description: as §1, §2, §3

[35] = system: MDA-MB-435; conditions: 10 µM, 48 h, Melanoma, values <0 indicate lethality
Description: as §1, §2, §3

[36] = system: BT-549; conditions: 10 µM, 48 h, Breast Cancer
Description: as §1, §2, §3

[37] = system: OVCAR-5; conditions: 10 µM, 48 h, Ovarian Cancer
Description: as §1, §2, §3

## Cc1cc2c(NC(=O)c3cc(NC(=O)c4ccco4)cc(-c4ccn(C)n4)c3)cccc2nn1 [Compound 2]
[1]
  %Growth: 66%
[2]
  %Growth: -19%
[3]
  %Growth: 57%
[4]
  %Growth: 52%
[5]
  %Growth: 19%
[6]
  %Growth: 86%
[7]
  %Growth: 42%
[8]
  %Growth: 57%
[9]
  %Growth: 54%
[10]
  %Growth: 43%
[11]
  %Growth: 73%
[12]
  %Growth: 63%
[13]
  %Growth: 67%
[14]
  %Growth: 49%
[15]
  %Growth: 18%
[16]
  %Growth: 40%
[17]
  %Growth: 28%
[18]
  %Growth: 87%
[19]
  %Growth: 91%
[20]
  %Growth: 23%
[21]
  %Growth: 61%
[22]
  %Growth: 68%
[23]
  %Growth: 66%
[24]
  %Growth: 22%
[25]
  %Growth: 32%
[26]
  %Growth: 18%
[27]
  %Growth: 25%
[28]
  %Growth: 38%
[29]
  %Growth: 63%
[30]
  %Growth: 32%
[31]
  %Growth: 64%
[32]
  %Growth: -36%
[33]
  %Growth: 21%
[34]
  %Growth: 43%
[35]
  %Growth: -47%
[36]
  %Growth: 33%
[37]
  %Growth: 89%
